Laboratory results taken from patent US9770461B2, “Tailored glycopolymers as anticoagulant heparin mimetics” (California Institute of Technology, priority 2013, dated 2017).

Experiments:
Type in all cases: biochemical
Factor Xa (FXa) = experiment: Chromogenic anti-FXa assay in the presence of antithrombin III; details: with ATIII
Method: The BIOPHEN Heparin Anti-Xa (2 stages) USP/EP kit (Aniara) was used to determine factor Xa activity. This chromogenic anti-Xa method for measuring homogeneous heparin in purified systems is in compliance with Pharmacopoeias (USP, EP) and FDA guidelines. All reagents were prepared according to manufacturer's instructions and incubated at 37° C. for 15 min. Varying concentrations of heparin (Neoparin) or glycopolymers 1-4 (40 μL) and antithrombin (40 μL) were added to a microcentrifuge tube, mixed, and incubated at 37° C. for 2 min. Factor Xa (40 μL) was added to the solution, incubated at 37° C. for exactly 2 min, and then the factor Xa chromogenic substrate (40 μL) was added. After 2 min, the reaction was quenched with citric acid (20 g/L, 240 μL), and the absorbance was measured at 405 nm. The sample blank was obtained by mixing the reagents in reverse order, and the resulting value was deducted from the absorbance values measured in the assay.
All reagents were prepared according to the manufacturer's instructions and incubated at 37° C. for 15 min. […] Absorbance at 405 nm was measured on a Uvikon XL spectrophotometer. […] The sample blank value was deducted from the absorbance measured for the corresponding assay.

citrated human plasma [1] = experiment: Activated partial thromboplastin time (APTT) analysis
Method: (§1) Plasma/anticoagulant samples were prepared by mixing 300 μL of the heparin standard or glycopolymer (150 μg/mL) in 0.9% saline and 2.7 mL of citrated human plasma. The tube was inverted 3 times to mix the sample thoroughly. Samples were analyzed by the UCLA Clinical & Translational Research Laboratory using a Sysmex® CA-1500 Coagulation Analyzer (Siemens AG, Erlangen, Germany). Clotting time in the absence of an anticoagulant was determined using 0.9% saline solution water (300 μL). Each clotting assay was performed in triplicate.

citrated human plasma [2] = experiment: Prothrombin time (PT) analysis; details: 300 μL of 150 μg/mL sample in 2.7 mL citrated human plasma
Method: as §1, with “Samples were” for “Plasma/anticoagulant samples were”, “saline with” for “saline and”, “mL” for “mL of”

IC50 (Factor Xa (FXa)): 11 ± 0.1 nM
SMILES: CO[C@H]1O[C@H](COS(=O)(=O)O)[C@@H](O[C@@H]2O[C@@H](C(=O)O)[C@@H](O[C@H]3O[C@H](COS(=O)(=O)O)[C@@H](O[C@@H]4O[C@H](C(=O)O)[C@@H](O[C@H]5O[C@H](COS(=O)(=O)O)[C@@H](O)[C@H](O)[C@H]5NS(=O)(=O)O)[C@H](O)[C@H]4O)[C@H](OS(=O)(=O)O)[C@H]3NS(=O)(=O)O)[C@H](O)[C@H]2OS(=O)(=O)O)[C@H](O)[C@H]1NS(=O)(=O)O [Arixtra]
APTT (citrated human plasma [1]; 300 μL of 150 μg/mL sample in 2.7 mL citrated human plasma): 78.3 ± 0.4 s | effect on APTT (in words) (citrated human plasma [1]; compared to saline control): increased only the APTT | PT (citrated human plasma [2]): 15.1 ± 0.3 s
